“Also recorded” adds a separate entry of the source.
Key:
human T cells [1] = assay: Human T cell survival by flow cytometry after 4 days; type: cell-based
Jurkat T cells = assay: Mitochondrial ROS by flow cytometry using CellROX Green, Jurkat T cells; type: cell-based, human; conditions: for induction of ROS: kaempferol 5 μM, quercetin 25 μM, daidzein 5 μM
Method: (§1) The invention further investigated how DMGV suppresses cell proliferation and survival.
In order to locate the cellular compartment of ROS generated by DMGV, Jurkat T cells were incubated with the mitochondria-specific ROS inhibitor MitoQ (100 nM) for 15 min before stimulation with DMGV (504) for ROS measurement.
(§2) As certain flavonoids are known to active MCU, we tested whether DMGV and the flavonoids activate MCU in the same manner. Jurkat T cells were treated with the flavonoids [kaempferol (5 μM), quercetin (25 μM), or daidzein (5 μM)]. […] The molecular docking simulator SwissDock predicted that the flavonoids and DMGV bind to MCU in a same pocket.

[2] = system: AGXT2^+/+ and AGXT2^−/− T cells; assay: Survival of AGXT2^+/+ and AGXT2^−/− T cells, 4 days, flow cytometry; type: cell-based, mice
Method: To investigate the role of AGXT2 and DMGV in T cell survival, AGXT2^+/+ and AGXT2^−/− T cells were stimulated with the indicated compounds (ADMA: 10 μM, SDMA: 10 μM, DMGV: 504, MitoQ: 100 nM) for 4 days and the survival rate was measured by flow cytometry.

[3] = system: MCU mutants deleted of Ile127, V135, or Ile127 and V135; assay: MCU deletion mutants transfected to MCU KO cells; type: cell-based; conditions: for dependence of MCU activation on Ile127: MCU mutant deleted of Ile127 in MCU KO cells; for dependence of MCU activation on V135: MCU mutant deleted of V135 in MCU KO cells
Source text: To test whether Ile127 and V135 are important for these compounds to activate MCU, we generated 3 different MCU mutants deleted of Ile127, V135, or Ile127 and V135. These MCU mutants were transfected to MCU KO cells and stimulated with kaempferol, daidzein, quercetin, or DMGV.

MCU = molecular target: T1, MCU (Homo sapiens, UniProt Q8NE86); assay: Mitochondrial calcium influx in Jurkat cells expressing Mito-GEM-GECO; type: cell-based; conditions: for induction of mitochondrial calcium: Jurkat T cells, kaempferol 5 μM, quercetin 25 μM, daidzein 5 μM
T1 construct: endogenous in cells; host or cells: Jurkat T cells
T1 sequence (Q8NE86 51-351): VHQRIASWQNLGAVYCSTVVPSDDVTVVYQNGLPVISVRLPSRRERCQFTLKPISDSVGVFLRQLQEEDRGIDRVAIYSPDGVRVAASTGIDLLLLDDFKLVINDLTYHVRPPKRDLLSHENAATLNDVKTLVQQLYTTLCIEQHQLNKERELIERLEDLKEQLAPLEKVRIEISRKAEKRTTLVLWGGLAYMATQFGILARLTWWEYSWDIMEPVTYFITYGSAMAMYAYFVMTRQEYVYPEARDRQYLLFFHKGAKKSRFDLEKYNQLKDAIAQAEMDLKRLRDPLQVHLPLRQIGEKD
T1 sequence (Q9H4I9 48-107 partner limits assumed): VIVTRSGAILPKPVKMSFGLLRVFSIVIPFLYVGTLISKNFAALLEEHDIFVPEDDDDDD
Method: (§3) As a sudden influx of calcium to the mitochondria can cause ROS induction, we tested whether DMGV regulates calcium flux to induce ROS. Calcium flux was measured by flow cytometry using the calcium indicator Fluo-8. While stimulation of T cell receptor (TCR) by a stimulatory antibody triggered calcium release from ER (efflux), which in turn induced calcium influx from the outside to cytosol (influx). […] Because of the close proximity between ER and mitochondria, calcium efflux from ER leads to calcium import to the mitochondria, which can be mediated by MCU.
as §2

AGXT2^−/− T cells = assay: ROS induction in AGXT2-KO T cells; type: cell-based, mice; conditions: ADMA 10 μM, SDMA 10 μM, DMGV (504)
Method: DMGV is converted from asymmetric dimethylarginine (ADMA) or symmetric dimethylarginine (SDMA) by alanine-glyoxylate aminotransferase 2 (AGXT2) in the mitochondria whereas ADMA or SDMA is metabolized to L-citrulline in the cytosol as shown in FIG. 6A. In order to investigate the role of DMGV in T cells, we generated AGXT2-KO (AGXT2^−/−) mice using Crispr/Cas9 technology according to FIG. 6B. Neither ADMA (10 μM) or SDMA (10 μM) induce ROS in AGXT2^−/− T cells but DMGV (504) still does, an evidence that SDMA or ADMA induces ROS only when they are converted to DMGV (FIG. 6C).

calcium flux = assay: Calcium flux by flow cytometry using Fluo-8; type: cell-based
Method: as §3

T cell = assay: ROS induction and T cell proliferation with selective iNOS inhibitor; type: cell-based
[4] = system: HCT-8 (Human colorectal cancer cell lines); type: cell-based
Method: (§4) In example one, pharmaceutical composition was screened and discovered natural small molecules that inhibit T cell survival and proliferation to use as therapeutics for chronic inflammatory diseases and cancers as taught in FIG. 1, T cells were stimulated with or without the indicated amount of DMGV and survival was measured by flow cytometry after 3 days. […] Solid tumor cancer cell lines were incubated with different doses of DMGV or 5-FU (5-fluorouracil), and cells survival was measured by CCK-8 after 2 days.

Jurkat cells = assay: T cell leukemia model, Jurkat cells injected into tail vein of mice; type: in vivo, NSG/SCID mice; conditions: 700 μg/mouse i.p.
Method: The next experiment tested whether DMGV can eliminate cancer cells in vivo. […] After 2 weeks of the injection, the level of Jurkat cells in the peripheral blood reached around 60% of the total leukocytes. The model mice were injected with either PBS (Control) or DMGV (700 μg/mouse intraperitoneal injection, i.p.) for 2 weeks as shown in FIG. 3B.

[5] = system: PC-3 (Human prostate cancer cell lines); assay: Solid tumor cell survival by CCK-8 after 2 days, PC-3; type: cell-based
Method: as §4

[6] = system: HCA-7 (colorectal cancer cell lines); assay: Solid tumor cell survival by CCK-8 after 2 days, HCA-7; type: cell-based
Method: as §4

[7] = system: HL-60 (Acute myeloid leukemia M3 cell lines); assay: Survival of hematological cancer cell line HL-60; type: cell-based
[8] = system: THP-1 (Acute monocytic leukemia cell lines); assay: Survival of hematological cancer cell line THP-1; type: cell-based
activated T cells [9] = assay: Energy metabolism by Seahorse assay; type: cell-based, mouse
Source text: The invention tested if DMGV relied on glycolysis to suppress cell survival.

[10] = system: K-562 (Human chronic myeloid leukemia cell lines); assay: Survival of hematological cancer cell line K-562; type: cell-based
activated T cells [11] = assay: T cell survival by flow cytometry after 3 days; type: cell-based; conditions: stimulated with indicated amount of DMGV
Method: as §4

mouse T cells [12] = assay: Mouse T cell survival in RPMI with or without glucose, 4 days; type: cell-based
Method: In order to test the effects of glycolysis on the DMGV function to inhibit survival, mouse T cells were activated with or without DMGV in RPMI with or without glucose for 4 days and the survival rates were measured by flow cytometry. […] Oxidative phosphorylation uses pyruvate, an end product of glycolysis, and thus a diminished glycolysis can decrease oxidative phosphorylation.

human T cells [13] = assay: Mitochondrial ROS by flow cytometry using CellROX Green, human T cells; type: cell-based
Source text: as §1

autoimmune arthritis = assay: Chronic autoimmune arthritis in SKG mice accelerated by laminarian; type: in vivo; conditions: i.p. 750 μg/mouse, twice a week, up to 50 days, start at score 8
Source text: In the second model, SKG mice harbor a point mutation in ZAP-70^W163C and Develop Chronic autoimmune arthritis similar to human RA due to aberrant T cell activation. The disease can be accelerated by injection of […].

chronic colitis = assay: Chronic colitis by adoptive transfer of naïve CD4+ T cells; type: in vivo, Rag2^−/− mice
Source text: The present invention tested if DMGV suppresses chronic T cell-mediated inflammation in two mouse models. In the first model, adoptive transfer of naïve CD4^+ T cells from syngeneic mice into immunodeficient (Rag2^−/−) mice induces chronic colitis similar to inflammatory bowel diseases (IBD) in humans, due to differentiation of T cells into pathogenic Th17 cells in the absence of regulatory T cells (Tregs). After adoptively transferring naïve CD4^+ T cells from syngeneic mice to recombinase activating gene-2-deficient (Rag2^−/−) mice to induce colitis, the mice showing the disease symptom in the form of loose stool around 4-6 weeks were randomly divided into two groups. One group (n=9) was treated with DMGV (i.p. 750 μg/mouse, twice a week) and the control group (n=11) with PBS up to 40 days and mortality was observed.

mouse T cells [14] = assay: Mitochondrial ROS by flow cytometry using CellROX Green, mouse T cells; type: cell-based
Source text: as §1

[15] = system: Jurkat (Human T lymphocytic leukemia cell lines); assay: Survival of hematological cancer cell line Jurkat; type: cell-based
[16] = MitoQ 100 nM with DMGV 504, 4 days

For COC1=C(OC)C(=O)C(CCCCCCCCCC[P+](c2ccccc2)(c2ccccc2)c2ccccc2)=C(C)C1=O [MitoQ, reference compound], the “effect on DMGV-induced T cell death” value (human T cells [1]; human T cells, DMGV with or without MitoQ, 4 days) was “rescued T cells from DMGV-induced cell death”, the “effect on DMGV-induced ROS production” value (Jurkat T cells; MitoQ (100 nM) 15 min before stimulation with DMGV (504)) was “completely inhibited ROS production” and the “effect on DMGV-induced inhibition of AGXT2^+/+ T cells” value [2, 16] was “rescued AGXT2^+/+ T cells from DMGV-induced inhibition”. For the same compound, the “effect on DMGV-induced rescue of AGXT2^−/− T cells” value [2, 16] was “inhibited DMGV-induced rescue of AGXT2^−/− T cells”.

In the case of O=c1c(O)c(-c2ccc(O)cc2)oc2cc(O)cc(O)c12 [kaempferol, 3,5,7-Trihydroxy-2-(4-hydroxyphenyl)-4H-chromen-4-one], the “dependence of MCU activation on Ile127” value [3] is reported as “independent on it”, the “dependence of MCU activation on V135” value [3] is reported as “totally dependent on it; also recorded: mostly dependent on V135” and the “survival of activated human T cells” value (human T cells [1]; activated human T cells) is reported as “suppressed survival of activated human T cells via mitochondrial ROS”. For the same compound, the “induction of ROS” value (Jurkat T cells; Jurkat T cells) was “induced mitochondrial calcium as wells ROS” and the “induction of mitochondrial calcium” value (MCU) was “induced mitochondrial calcium”.

For CN(C)C(N)=NCCC[C@H](N)C(=O)O [ADMA, asymmetric dimethylarginine], the “ROS induction in AGXT2^−/− T cells” value (AGXT2^−/− T cells) was “do not induce ROS”.

With CN=C(NC)NCCC[C@H](N)C(=O)O [SDMA, symmetric dimethylarginine] the “ROS induction in AGXT2^−/− T cells” value (AGXT2^−/− T cells) was “do not induce ROS”.

For Ru360 [reference compound], the “effect on TCR-induced calcium flux” value (calcium flux; Ru360) was “not affected” and the “effect on DMGV-induced calcium influx to the mitochondria” value (MCU; Ru360 (104)) was “completely inhibited”.

In the case of O=c1c(-c2ccc(O)cc2)coc2cc(O)ccc12 [daidzein, 7-hydroxy-3-(4-hydroxyphenyl)-4H-chromen-4-one], the “dependence of MCU activation on Ile127” value [3] is reported as “independent on it”, the “dependence of MCU activation on V135” value [3] is reported as “mostly dependent on V135” and the “induction of ROS” value (Jurkat T cells; Jurkat T cells) is reported as “induced mitochondrial calcium as wells ROS”. The “induction of mitochondrial calcium” value (MCU) was “induced mitochondrial calcium”.

With CC(=N)NCCCC[C@H](N)C(=O)O [N6-(1-iminoethyl)-L-lysine] the ROS induction (T cell) was “does not induce ROS” and the T cell proliferation (T cell) was “does not induce ROS or inhibit T cell proliferation”.

With dimethylguanidino valeric acid [DMGV] the “calcium efflux (release from ER)” value (calcium flux; Fluo-8) was “induced efflux”, the “calcium influx from the outside to cytosol” value (calcium flux; Fluo-8) was “not influx” and the “inhibition of HCT-8 proliferation compared with 5-FU” value [4] was “inhibited proliferation of HCT-8 better than a known chemotherapeutic drug, 5-FU”. The “proliferation of HCT-8” value ([4]; CCK-8 after 2 days) was “suppresses proliferation”, the “suppression of HCT-8 proliferation, 3D versus 2D culture” value ([4]; Matrigel (3D) vs 2-dimensional culture) was “much more effective in suppressing proliferation of HCT-8 cultured in Matrigel™ (3D) than 2D” and the “Jurkat cells in the peripheral blood” value (Jurkat cells; after 2 weeks of treatment) was “completely eliminated Jurkat cells”. For the same compound, the cancer-induced death (Jurkat cells; after 4 weeks of treatment) was “prevented the cancer-induced death”, the “dependence of MCU activation on Ile127” value [3] was “completely; also recorded: dependent mostly on Ile127” and the “dependence of MCU activation on V135” value [3] was “independent on Va1135”. The “proliferation of PC-3” value [5] was “suppresses proliferation”, the “proliferation of HCA-7” value [6] was “suppresses proliferation” and the “induction of mitochondrial ROS” value (Jurkat T cells; Jurkat T cells) was “rapidly induces mitochondrial ROS”. The “ROS induction in glucose-free medium” value (Jurkat T cells; Jurkat T cells in RPMI without glucose for 24 h) was “does not induce ROS”, the “dependence of DMGV-induced ROS on MCU” value (Jurkat T cells; Ru360 or MCU KO) was “dependent on MCU” and the “survival of HL-60 cells” value [7] was “suppresses survival”. The “survival of AGXT2^+/+ T cells” value ([2]; DMGV: 504, 4 days) was “inhibited survival of AGXT2^+/+ T cells”, the “survival of AGXT2^−/− T cells” value ([2]; DMGV: 504, 4 days) was “rescued AGXT2^−/− T cells” and the “ROS induction in AGXT2^−/− T cells” value (AGXT2^−/− T cells) was “still does”. The “survival of THP-1 cells” value [8] was “suppresses survival”, the glycolysis (activated T cells [9]) was “significantly inhibited” and the oxidative phosphorylation (activated T cells [9]) was “significantly inhibited”. For the same compound, the “survival of K-562 cells” value [10] was “suppresses survival”, the “survival and proliferation of activated T cells” value (activated T cells [11]) was “inhibit the survival and proliferation of activated T cells” and the “T cell survival in glucose-free culture” value (mouse T cells [12]) was “no longer affected T cell survival”. The “induction of mitochondrial ROS” value (human T cells [13]) was “rapidly induces mitochondrial ROS”, the arthritis score (autoimmune arthritis) was “significantly decreased the arthritis score” and the “calcium influx to the mitochondria” value (MCU; Jurkat cells, Mito-GEM-GECO) was “induces calcium influx to the mitochondria”. The “survival (mortality) of colitis mice” value (chronic colitis; i.p. 750 μg/mouse, twice a week, up to 40 days, n=9) was “all except for one mouse survived”, the “normalized IL-17A+ T cell number in colonic tissue” value (chronic colitis; survived mice, compared to the control group) was “significantly lower” and the “induction of mitochondrial ROS” value (mouse T cells [14]) was “rapidly induces mitochondrial ROS”. For the same compound, the “survival of Jurkat cells” value [15] was “suppresses survival”.

From patent US11744815B1, “Pharmaceutical composition of dimethylguanidino valeric acid and plant flavonoids for treating chronic inflammatory diseases and cancer” (priority 2022, dated 2023)
